This experiment concerns freshly isolated NK cells. Kind of experiment: Effect of different inhibitors on LO-CD2a mediated NK apoptosis (PI, flow cytometry). Type of experiment: cell-based, human. Conditions: 3 h pre-incubation with inhibitor, then 3 hours with LO-CD2a; 5 donors. How it is done:
Effect of different inhibitors on LO-CD2a mediated NK apoptosis. 100 ul of freshly isolated NK cells (10^6/ml) were pre-incubated for 3 h at 37° C. in a 96 well plate with EGTA (20 mM), staurosporin (250 nM), quinacrine ([…]), cyclosporin A ([…]), FK506 ([…]), wortmannin (500 ng/ml), concanamycin A ([…]), cytochalasine D (1 mg/ml), actinomycin) (500 ng/ml final concentration), NOK-1 (25 mg/ml) or medium alone. After incubation for 3 hours with LO-CD2a ([…] final concentration) propidium iodide was added and cell mortality was analysed by flow cytometry.
A general note: Flow cytometry measures light scatter and fluorescence of single cells or particles in a stream.

From patent publication US6692743B1, “Apoptosis of naive human NK cells by crosslinking of their FcγRIIIa molecules with a rat IgG2b (LO-CD2a/BTI-322) or its IgG1 humanized monoclonal antibody” (Universite Catholique de Louvain, priority 1998, dated 2004) come the findings set out here.

Numbered stars: 1 amine (or outer) side, 2 acyl side, 3 side chain; on linkers, the order of the positions; unused ones are H or OH. Bridge positions count the residues as written; N and C are the ends. Square brackets hold non-standard residues; d marks the D form. Peptide text beside a SMILES is read from it. I, II: the chains in the order shown. Actinocin(9to1) = Cc1c2oc3c(C)ccc(C(=O)[*:1])c3nc-2c(C(=O)[*:2])c(N)c1=O; NMeV = CN[C@H](C(=O)O)C(C)C; Sar = CNCC(=O)O

Regarding Cyclosporin A, the “inhibition of LO-CD2a mediated NK apoptosis (in words)” value (“inhibition” for short) is listed as “partially inhibited”.

Take `CCN(CC)CCCC(C)Nc1c2ccc(Cl)cc2nc2ccc(OC)cc12` (centres unmarked) [quinacrine, Quinacrine]: the “inhibition” value was “completely inhibited”.

In the case of `C/C=C/[C@H]1O[C@@](O)([C@@H](C)[C@H](O)[C@H](C)[C@H]2OC(=O)/C(OC)=C/C(C)=C/[C@@H](C)[C@@H](O)[C@@H](CC)[C@@H](O)[C@H](C)C/C(C)=C/C=C/[C@@H]2OC)C[C@@H](O[C@H]2C[C@@H](O)[C@H](OC(N)=O)[C@@H](C)O2)[C@@H]1C` [concanamycin A, Concanamycin A], the “inhibition” value was “failed to inhibit apoptosis”.

In the case of `Cc1c2oc3c(C)ccc(C(=O)N[C@@H]4C(=O)N[C@H](C(C)C)C(=O)N5CCC[C@H]5C(=O)N(C)CC(=O)N(C)[C@@H](C(C)C)C(=O)O[C@@H]4C)c3nc-2c(C(=O)N[C@@H]2C(=O)N[C@H](C(C)C)C(=O)N3CCC[C@H]3C(=O)N(C)CC(=O)N(C)[C@@H](C(C)C)C(=O)O[C@@H]2C)c(N)c1=O` [actinomycin D, Actinomycin D] (I: T[dV]P[Sar][NMeV] / II: T[dV]P[Sar][NMeV]; ester I:1-I:C, II:1-II:C; linker I:N-II:N via Actinocin(9to1)), the “inhibition” value is listed as “did not have any blocking effect”.

On to `O=C(O)CN(CCOCCOCCN(CC(=O)O)CC(=O)O)CC(=O)O` [EGTA], for which the “inhibition” value was “completely inhibited”.
